Where “and” joins values, the source holds several entries; their conditions need not be identical. Equal values may be shown once.
Columns and labels:
[1] = biological target: T1, human FXR-LBD (GST-FXR-LBD) (Homo sapiens, UniProt Q96RI1); assay: HTRF coactivator recruitment assay, antagonist mode (in the presence of 50 μM CDCA); assay type: biochemical
T1 construct: the human FXR-LBD (residues 234–472) was expressed as a GST fusion protein GST-FXR-LBD; made in house; host or cells: E. coli BL21(DE3)
T1 sequence (Q96RI1 234-472 isoform Q96RI1-2): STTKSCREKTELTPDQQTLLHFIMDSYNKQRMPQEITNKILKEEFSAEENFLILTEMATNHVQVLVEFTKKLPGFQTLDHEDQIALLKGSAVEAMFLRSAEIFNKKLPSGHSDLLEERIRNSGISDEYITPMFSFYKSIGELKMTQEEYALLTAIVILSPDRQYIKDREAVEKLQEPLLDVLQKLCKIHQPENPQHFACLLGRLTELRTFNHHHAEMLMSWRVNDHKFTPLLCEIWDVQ

[2] = system: FXR target genes (SHP, NTCP, CYP7A1) in HepG2 cells; assay: qPCR of FXR target genes in HepG2 cells; assay type: cell-based, human
C57BL/6N mice [3] = assay: Hepatic triglyceride (TG enzymatic assay kit); assay type: in vivo; conditions: for Hepatic TG: individual mice
Procedure: (§1) Male C57BL/6N mice (8 wk of age) were purchased from Beijing Vital River Laboratory Inc. and acclimated to the environment for 2 wk before they were used for experiments. The environment was maintained at 22°C, in a 12-h light/dark cycle with 50%–60% relative humidity and fed standard chow diets. Because the male mice are more sensitive to metabolic disease than female mice and the estrous cycle of female mice may induce variability to the metabolic phenotypes,[50] only male mice were used in this study. Animals were randomly assigned to control or TPHP treatment groups (five mice per group). Mice were exposed to corn oil (control) purchased from Sigma-Aldrich (C8267) or TPHP (dissolved in corn oil) at 10mg/kg or 50mg/kg body weight (BW) by daily oral gavage for 35 d. The administered volume was 5mL/kg BW. The TPHP corn oil solutions for administration were prepared by dissolving the TPHP in corn oil, and the solutions were stored at −20°C and freshly prepared each week. BW was measured every other day during the dosing period. At the end of experiments, the mice were anesthetized with isoflurane, then blood was collected from the retro-orbital sinus via orbital puncture, and then the mice were euthanized by cervical dislocation. The liver was isolated, weighted, and divided into three fractions: one fraction was fixed with 4% neutral-buffered formalin for Oil Red staining; another fraction was frozen in liquid nitrogen and stored at −80°C for the BA targeted analysis, lipidomic analysis, and qPCR analysis; the remaining fraction was embedded with 3% carboxymethylcellulose (CMC) for MSI analysis. The ileum was also isolated, weighted, and stored at −80°C for the BA targeted analysis and qRT-PCR analysis. […]
The TG level in the liver was determined using a triglyceride enzymatic assay kit (Applygen). […] The total BA level in the liver was determined using a Total Bile Acid (TBA) Colorimetric Assay Kit (Elabscience). […] Both the TG and TBA results were normalized by the protein concentration determined by bicinchoninic acid (BCA) method using a BCA kit (Applygen).

C57BL/6N mice [4] = assay: Serum ALT and AST activities; assay type: in vivo; conditions: for Serum ALT activity / Serum AST activity: individual mice
Procedure: Male C57BL/6N mice (8 wk of age) were purchased from Beijing Vital River Laboratory Inc. and acclimated to the environment for 2 wk before they were used for experiments. The environment was maintained at 22°C, in a 12-h light/dark cycle with 50%–60% relative humidity and fed standard chow diets. Because the male mice are more sensitive to metabolic disease than female mice and the estrous cycle of female mice may induce variability to the metabolic phenotypes,[50] only male mice were used in this study. Animals were randomly assigned to control or TPHP treatment groups (five mice per group). Mice were exposed to corn oil (control) purchased from Sigma-Aldrich (C8267) or TPHP (dissolved in corn oil) at 10mg/kg or 50mg/kg body weight (BW) by daily oral gavage for 35 d. The administered volume was 5mL/kg BW. The TPHP corn oil solutions for administration were prepared by dissolving the TPHP in corn oil, and the solutions were stored at −20°C and freshly prepared each week. BW was measured every other day during the dosing period. At the end of experiments, the mice were anesthetized with isoflurane, then blood was collected from the retro-orbital sinus via orbital puncture, and then the mice were euthanized by cervical dislocation. The liver was isolated, weighted, and divided into three fractions: one fraction was fixed with 4% neutral-buffered formalin for Oil Red staining; another fraction was frozen in liquid nitrogen and stored at −80°C for the BA targeted analysis, lipidomic analysis, and qPCR analysis; the remaining fraction was embedded with 3% carboxymethylcellulose (CMC) for MSI analysis. The ileum was also isolated, weighted, and stored at −80°C for the BA targeted analysis and qRT-PCR analysis. Cecal contents were collected from the cecum of mice for the 16S rRNA gene sequencing analysis. Animal study protocols were approved by the Animal Care and Use Committee of Peking University (approval number: Urban-WanY-1).
Blood samples collected from the mice were incubated in a 37°C water bath for 30 min and then incubated under 4°C for 5 h. After centrifuged at 5,000×g and 4°C for 5 min, the serums were aliquoted and stored at −80°C . The determination of serum alanine transaminase (ALT) and aspartate transaminase (AST) activities in the serum were determined using the commercial kits (E2021, E2023; Applygen).

C57BL/6N mice [5] = assay: Oil Red O lipid staining of liver sections; assay type: in vivo; conditions: TPHP exposure groups
Procedure: as §1, with “dislocation.” for “dislocation. The liver was isolated, weighted, and divided into three fractions: one fraction was fixed with 4% neutral-buffered formalin for Oil Red staining; another fraction was frozen in liquid nitrogen and stored at −80°C for the BA targeted analysis, lipidomic analysis, and qPCR analysis; the remaining fraction was embedded with 3% carboxymethylcellulose (CMC) for MSI analysis. The ileum was also isolated, weighted, and stored at −80°C for the BA targeted analysis and qRT-PCR analysis.”

PPARγ = system: PPARγ; parameters: method as in PMID 34340181; conditions: in vitro assays and in silico molecular docking; cited from earlier work
PXR = conditions: in vitro assays and in silico molecular docking; cited from earlier work
[6] = read-out: Relative antagonist activity (%)
[7] = 10 μM TPHP + 50 μM CDCA, replicates
[8] = TPHP-H: 50 mg/kg daily oral gavage 35 d
[9] = TPHP-L: 10 mg/kg daily oral gavage 35 d

## O=P(Oc1ccccc1)(Oc1ccccc1)Oc1ccccc1 [TPHP, triphenyl phosphate]
[1]; 1.95 μM compound + 50 μM CDCA, replicates, read-out: Relative antagonist activity (%)
  activity at 1.95 µM: 97.2%
[1]; 3.90 μM compound + 50 μM CDCA, replicates, read-out: Relative antagonist activity (%)
  activity at 3.9 µM: 97.3%
[1]; 31.25 μM compound + 50 μM CDCA, replicates, read-out: Relative antagonist activity (%)
  activity at 31.25 µM: 87.3%
[1]; 50 μM compound in the presence of 50 μM CDCA, standardized against positive control DY268 (50 μM = 100%)
  Relative activity, antagonist mode: 42.69%
[1]; 62.50 μM compound + 50 μM CDCA, replicates, read-out: Relative antagonist activity (%)
  activity at 62.5 µM: 76.5%
[1]; 250.00 μM compound + 50 μM CDCA, standardized to DMSO and 50 μM CDCA, replicates, read-out: Relative antagonist activity (%)
  activity at 250 µM: 58.1%
[1]; read-out: IC50, inhibition of CDCA-induced coactivator recruitment to FXR
  IC50: 70.6 µM
[1]; [6]
  activity at 0.98 µM: 99.2%
  activity at 7.8 µM: 95.9%
  activity at 125 µM: 64.3%
  activity at […]: 90.6%
[2]
  Effect on CDCA-induced expression changes of FXR target genes (SHP, NTCP, CYP7A1), in words: attenuated the CDCA-induced expression changes
[2]; [7]
  Relative mRNA expression level of CYP7A1: 1.85 fold changes and 1.10 fold changes and 1.48 fold changes
  Relative mRNA expression level of NTCP: 1.11 fold changes and 0.92 fold changes and 0.94 fold changes
  Relative mRNA expression level of SHP: 1.02 fold changes and 1.19 fold changes and 1.08 fold changes
C57BL/6N mice [3]; TPHP exposure groups
  Hepatic TG concentrations vs control group (in words): significantly higher
C57BL/6N mice [3]; [8]
  Hepatic TG: 731.21 μmol/g prot and 811.79 μmol/g prot and 765.68 μmol/g prot
C57BL/6N mice [3]; [9]
  Hepatic TG: 784.11 μmol/g prot and 752.79 μmol/g prot and 725.51 μmol/g prot
C57BL/6N mice [4]; TPHP exposure groups
  Serum ALT vs control group (in words): significantly higher
  Serum AST vs control group (in words): higher
C57BL/6N mice [4]; [8]
  Serum ALT activity: 14.85 and 21.35 and 16.29
  Serum AST activity: 72.41 and 61.71 and 102.89
C57BL/6N mice [4]; [9]
  Serum ALT activity: 15.83 and 17.21 and 25.56
  Serum AST activity: 84.28 and 74.46 and 60.21
C57BL/6N mice [5]
  Oil Red O staining intensity of liver sections vs control (in words): higher
PPARγ
  PPARγ activity reported (in words): agonists
PXR
  PXR activity reported (in words): agonists

Reference: PMC12010937, “Evaluation of FXR Activity in Pollutants Identified in Sewage Sludge and Subsequent in Vitro and in Vivo Characterization of Metabolic Effects of Triphenyl Phosphate” (Environmental Health Perspectives, 2025)
